Broadly, the IC50 is the concentration at which inhibition is half-maximal. In general, Ki refers to a dissociation constant, usually derived from enzyme kinetics or from competition with a known ligand.

The target in test [1] is T1, Steroid 17-alpha-hydroxylase/17,20 lyase (Homo sapiens, UniProt P05093).
T1 sequence (P05093 whole entry): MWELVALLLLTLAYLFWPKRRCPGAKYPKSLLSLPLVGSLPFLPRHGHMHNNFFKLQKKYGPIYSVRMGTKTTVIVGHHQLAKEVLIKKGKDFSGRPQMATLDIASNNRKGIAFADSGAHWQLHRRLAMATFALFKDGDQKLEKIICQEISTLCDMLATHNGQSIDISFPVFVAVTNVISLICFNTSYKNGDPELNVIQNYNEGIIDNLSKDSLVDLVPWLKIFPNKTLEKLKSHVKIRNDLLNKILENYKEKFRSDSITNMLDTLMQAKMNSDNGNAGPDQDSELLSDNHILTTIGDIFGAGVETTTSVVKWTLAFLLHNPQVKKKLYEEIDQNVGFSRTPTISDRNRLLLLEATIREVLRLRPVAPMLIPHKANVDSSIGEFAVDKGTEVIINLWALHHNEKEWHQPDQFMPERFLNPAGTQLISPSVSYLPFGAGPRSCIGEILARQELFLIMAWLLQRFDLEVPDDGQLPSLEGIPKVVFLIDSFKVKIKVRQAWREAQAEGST
Description: Inhibition of human testicular microsome CYP17. The class given is ADME, microsomes, Testis.

In test [2] the target is T1, Steroid 17-alpha-hydroxylase/17,20 lyase. The test is described as follows: Inhibition of human testicular CYP17. The class given is ADME, tissue-based, Testis.
Test [3] addresses T2, Steroid 17-alpha-hydroxylase/17,20 lyase (Rattus norvegicus, UniProt P11715).
T2 sequence (P11715 whole entry): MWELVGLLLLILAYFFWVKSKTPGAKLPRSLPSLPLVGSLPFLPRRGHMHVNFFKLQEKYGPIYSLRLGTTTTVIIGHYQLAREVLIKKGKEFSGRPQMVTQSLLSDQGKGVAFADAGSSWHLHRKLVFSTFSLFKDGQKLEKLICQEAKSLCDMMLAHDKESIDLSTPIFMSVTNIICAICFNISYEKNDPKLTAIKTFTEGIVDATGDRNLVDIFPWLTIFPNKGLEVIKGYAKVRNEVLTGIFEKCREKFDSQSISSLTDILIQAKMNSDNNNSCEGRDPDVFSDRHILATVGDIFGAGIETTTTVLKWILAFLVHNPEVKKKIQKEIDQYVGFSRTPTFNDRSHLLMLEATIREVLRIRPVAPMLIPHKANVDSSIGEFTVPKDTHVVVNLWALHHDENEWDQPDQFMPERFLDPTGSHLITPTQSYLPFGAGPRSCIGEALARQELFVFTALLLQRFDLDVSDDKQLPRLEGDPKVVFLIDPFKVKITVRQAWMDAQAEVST
The test is described as follows: Inhibition of rat testicular CYP17. In kind it is ADME, tissue-based, Testis.

Another test relates to Serum. Description: In vivo inhibition of testosterone in Sprague-Dawley rat assessed as serum testosterone level at 25 mg/kg, po measured after 5 hrs by radioimmuno assay relative to control. The class given is functional.
Test [4] deals with T1, Steroid 17-alpha-hydroxylase/17,20 lyase. The test is described as follows: Inhibiton of human CYP17A1 C17, 20 lyase activity expressed in Escherichia coli using [1,2-3H]-17alpha-hydroxyprogesterone as substrate incubated for 15 mins in presence of NADPH generating system. The class given is ADME.
The target in another test is Cytochrome P450 3A4 (Homo sapiens, UniProt P08684). Description: Inhibition of human recombinant CYP3A4. The class given is ADME.
Sequence of Cytochrome P450 3A4 (P08684 whole entry): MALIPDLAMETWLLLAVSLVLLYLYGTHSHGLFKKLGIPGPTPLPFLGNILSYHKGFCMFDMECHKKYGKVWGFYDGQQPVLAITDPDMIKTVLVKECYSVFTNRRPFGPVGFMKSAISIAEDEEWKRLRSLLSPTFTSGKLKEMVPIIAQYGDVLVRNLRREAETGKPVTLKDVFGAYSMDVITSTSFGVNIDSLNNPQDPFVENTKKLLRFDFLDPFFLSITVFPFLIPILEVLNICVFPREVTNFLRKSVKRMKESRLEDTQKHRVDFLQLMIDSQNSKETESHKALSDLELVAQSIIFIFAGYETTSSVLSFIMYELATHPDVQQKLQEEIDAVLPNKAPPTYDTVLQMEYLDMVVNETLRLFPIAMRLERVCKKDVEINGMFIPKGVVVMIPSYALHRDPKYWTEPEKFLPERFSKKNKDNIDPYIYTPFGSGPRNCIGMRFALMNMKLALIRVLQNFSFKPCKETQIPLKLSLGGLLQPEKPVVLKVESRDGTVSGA
In another test the target is Cytochrome P450 2D6 (Homo sapiens, UniProt P10635). The test is described as follows: Inhibition of human recombinant CYP2D6. The class given is ADME.
Sequence of Cytochrome P450 2D6 (P10635 whole entry): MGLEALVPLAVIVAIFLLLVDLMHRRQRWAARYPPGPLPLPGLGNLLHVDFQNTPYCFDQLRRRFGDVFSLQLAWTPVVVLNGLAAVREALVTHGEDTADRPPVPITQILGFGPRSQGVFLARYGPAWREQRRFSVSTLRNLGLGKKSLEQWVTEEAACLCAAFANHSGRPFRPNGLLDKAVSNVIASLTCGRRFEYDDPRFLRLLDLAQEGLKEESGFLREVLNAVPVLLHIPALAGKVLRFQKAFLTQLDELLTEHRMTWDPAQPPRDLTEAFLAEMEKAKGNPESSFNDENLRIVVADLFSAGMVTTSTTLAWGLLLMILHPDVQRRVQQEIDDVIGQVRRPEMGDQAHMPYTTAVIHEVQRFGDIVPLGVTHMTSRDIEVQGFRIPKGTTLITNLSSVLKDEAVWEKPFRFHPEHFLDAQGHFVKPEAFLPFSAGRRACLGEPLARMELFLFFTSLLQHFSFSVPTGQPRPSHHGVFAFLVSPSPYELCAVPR
Test [5] addresses T2, Steroid 17-alpha-hydroxylase/17,20 lyase. Description: Binding affinity to Sprague-Dawley rat testicular microsome CYP17A1 assessed as inhibition constant. In kind it is ADME, microsomes, Testis.
Test [6] shares this target. The test is described as follows: Inhibition of Spague-Dawley rat testicular microsome CYP17 using progesterone as substrate preincubated for 5 mins followed by enzyme addition measured after 20 mins in presence of NADPH. The class given is ADME, microsomes, Testis.
Test [7] concerns the target T1, Steroid 17-alpha-hydroxylase/17,20 lyase. Description: Inhibition of human testicular microsomal C17, 20 lyase activity using 17alpha-[1,2,6,7-3H] hydroxyprogesterone. The class given is microsomes, Testis, Microsome.
Test [8] has as its target T2, Steroid 17-alpha-hydroxylase/17,20 lyase. The test is described as follows: Inhibiton of Sprague-Dawley rat testicular microsomal suspension CYP17A1 C17, 20 lyase activity using [1,2-3H]-17alpha-hydroxyprogesterone as substrate incubated for 15 mins in presence of NADPH generating system. In kind it is ADME, microsomes, Testis, Microsome.
Test [9] shares this target. Description: Inhibition of rat CYP17. In kind it is ADME.
Test [10] deals with T1, Steroid 17-alpha-hydroxylase/17,20 lyase. Description: Inhibition of human recombinant CYP17A1 C17,20-lyase activity expressed in Escherichia coli using [1,2-3H]-17alpha-hydroxypregnenolone as substrate incubated for 15 mins. The class given is ADME.
The target of test [11] is T2, Steroid 17-alpha-hydroxylase/17,20 lyase. The test is described as follows: Inhibiton of Sprague-Dawley rat testicular microsomal suspension CYP17A1 17-alpha hydroxylase activity using radiolabelled progesterone as substrate preincubated for 5 mins followed by enzyme addition incubated for 15 mins in presence of NADPH generating system. In kind it is ADME, microsomes, Testis, Microsome.

Test [12] has the same target. Description: Inhibiton of Sprague-Dawley rat testicular microsomal suspension CYP17A1 C17, 20 lyase activity using radiolabelled 17alpha-hydroxyprogesterone as substrate preincubated for 5 mins followed by enzyme addition incubated for 30 mins in presence of NADPH generating system. In kind it is ADME, microsomes, Testis, Microsome.
The target of test [13] is T1, Steroid 17-alpha-hydroxylase/17,20 lyase. Description: Inhibition of human testis C17, 20 lyase activity using 17alpha-[1,2-3H] hydroxyprogesterone incubated for 30 mins in presence of NADPH generating system. The class given is tissue-based.
The target is the same in test [14]. The test is described as follows: Inhibition of human CYP17 C17,20-lyase activity. In kind it is ADME.

Where only a bound is given, the exact number is not on record here.

In turn, `c1ccc(-c2ccc(Cn3ccnc3)cc2)cc1` displayed an IC50 in test [1] of 1000 nM.

On to `CC(c1ccc(-c2ccc(F)cc2)cc1)n1ccnc1` (stereo not given), for which the IC50 in test [2] turned out to be 240 nM; in test [3], 540 nM.

Regarding `Cc1c(/C=C/[C@H](C)c2c[nH]cn2)sc2ccc(F)cc12`, the Ct in the test on Serum was found to be 2%. In addition, the 50% inhibitory concentration (IC50) in [4] was 21 nM.

As for `c1cncc(Nc2ccc(-n3cnc4ccccc43)cc2)c1`, the IC50 at Cytochrome P450 3A4 and at Cytochrome P450 2D6 was more than 10000 nM in each case.

On to `CC1=C(c2cccnc2)Cc2cc(Cl)ccc21`, for which, in test [5], the inhibition constant Ki turned out to be 40 nM.

Turning to `COc1cccc2c1CCC(c1ccncc1)C2=O` (stereo not given), in [6], the IC50 is 13000 nM.

With `Brc1cc(Br)c2oc(Cn3ccnc3)cc2c1`, the IC50 in test [7] was found to be 185 nM.

For `C(=C\c1cccc(-n2ccnc2)c1)/c1ccccc1`, the 50% inhibitory concentration (IC50) in [8] worked out at 230 nM.

Turning to `COc1ccc2c(c1)CCC(Cc1c[nH]cn1)C2` (stereo not given), the IC50 in test [9] came out at 1000 nM.

For `COc1ccc(-c2ccc([C@](O)(c3c[nH]cn3)C(C)C)cc2)cc1OC`, in [10], the IC50 amounted to 11 nM.

Regarding `O=C1c2cc(Cl)ccc2CCC1c1cccnc1` (stereo not given), the Ki in test [5] came out at 300 nM.

As for `Brc1ccc(CCCCCn2ccnc2)cc1`, the 50% inhibitory concentration (IC50) was found to be 500 nM in [11] and 58 nM in [12].

Consider `Clc1ccccc1C(c1cc2cc(Br)ccc2o1)n1ccnc1` (stereo not given), for which, in test [13], the IC50 is 4 nM.

As for `C(=C/c1cccc(Cn2ccnc2)c1)/c1ccccc1`, the IC50 in [8] was found to be 24 nM. For the same molecule, the Ct in the test with Serum came to 135%.

In test [14], `O=c1c(O)cc([C@H]2Oc3cc(O)cc(O)c3C[C@H]2O)cc2c([C@H]3Oc4cc(O)cc(O)c4C[C@H]3O)cc(O)c(O)c12` [THEAFLAVIN] came in with an IC50 of 25000 nM.

The record behind these values is ChEMBL document CHEMBL5338784, “Non-steroidal CYP17A1 Inhibitors: Discovery and Assessment” (J Med Chem, 2023).
